What was measured:
Kuramochi cells = test: BrdU Cell Proliferation Assay; assay type: cell-based; details: read-out: BrdU - KURAMOCHI.1: IC50
In short: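 Kuramochi cells were seeded at 2,000 cells/well, adhered overnight, then treated with a 10-point, 3-fold compound dilution series for 4 days. Proliferation was measured by a 1-hour BrdU pulse, anti-BrdU peroxidase colorimetric ELISA and 450 nm absorbance. Values were background-subtracted and normalized to DMSO wells.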

CDK2/Cyclin E1 = molecular target: T1, CDK2/Cyclin E1 (Homo sapiens, UniProt P24941); test: CDK2/Cyclin E1 Caliper Assay (LabChip EZ Reader mobility shift); assay type: biochemical; details: read-out: Caliper Assay (CDK2/CCNE1): IC50
T1 construct: purchased Eurofins 14-475
Method: Inhibition of CDK2/Cyclin E1 activity in the presence of compounds of the present disclosure was evaluated using a Caliper LabChip® EZ Reader mobility shift assay. In the assay, CDK2/Cyclin E1 (Eurofins, 14-475) catalyzed the phosphorylation of a fluorescently tagged peptide 5-FAM-QSPKKG-CONH2 (PerkinElmer, FL Peptide 18) which induced a difference in capillary electrophoresis mobility. The peptide substrate and product were measured, and the conversion ratio was used to determine the inhibition (as % activity and IC50 values) of CDK2/Cyclin E1. Reactions contained 50 mM HEPES pH 7.5, 10 mM MgCl2, 1 mM EDTA, 2 mM DTT, 0.01% Brij35, 0.5 mg/mL BSA, 0.1% DMSO, 2.5 nM CDK2/Cyclin E1, 100 μM ATP, and 1.5 μM fluorescent peptide substrate.
Dose titrations of inhibitors in 100% DMSO were combined with 3.25 nM CDK2/Cyclin E1 and 130 μM of ATP in reaction buffer. The mixtures were incubated for 30 minutes before the addition of fluorescent peptide substrate to initiate the kinase reaction. The final conditions were 2.5 nM CDK2/Cyclin E1, 100 μM ATP, and 1.5 μM fluorescent peptide. The reactions were stopped after 100 minutes with the addition of EDTA (400 mM final EDTA concentration). The stopped reactions were analyzed on a Caliper LabChip® EZ Reader II. The conversion ratios were normalized to yield % activity, plotted against compound concentration, and fit to a four-parameter equation to determine the IC50 for each compound.

[1] = test system: Kuramochi cells labeled with mApple-H2B; test: IncuCyte Cell Proliferation Assay; assay type: cell-based
In short: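 Cells imaged at 0 and 72 h after compound treatment (10 points, ½ log dilution, 20 μM top), with fluorescent nuclei counted. Fold change in count was normalized to DMSO wells and fitted to dose-response curves to give GI50.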

IC50 (CDK2/Cyclin E1)	Compound	IC50 (Kuramochi cells)	IC50 ([1]; 72 h)	IC50 ([1]; 72 hours)
1 to 10 µM	C[C@@H]1C[C@H](C)CN(C(=O)[C@@H](NC(=O)[C@H]2CN(C(=O)c3cn[nH]c3)CC23CN(C(=O)[C@H]2CC2(C)C)C3)[C@@H](C)OCC2CCCCC2)C1 [I-173B]	> 10 µM	–	–
0.01 to 0.1 µM	COCC1CCCN(C(=O)[C@@H](NC(=O)[C@H]2CN(C(=O)c3cnn(Cc4ccccc4)c3)CC23CN(C(=O)[C@H]2CC2(C)C)C3)[C@@H](C)OCC2CCCCC2)C1 (stereo partly shown) [I-111]	≤ 0.5 µM	0.5 to 5 µM	–
≤ 0.01 µM	CC(=O)N[C@H]1CCCN(C(=O)[C@@H](NC(=O)[C@@H]2CN(C(=O)c3cncs3)CC23CN(C(=O)[C@H]2CC2(C)C)C3)[C@@H](C)OCC2CCCCC2)C1 [I-330]	5 to 10 µM	0.5 to 5 µM	–
> 10 µM	CNC(=O)[C@H](COCc1ccccc1)NC(=O)[C@H]1CN(C(=O)c2cnn(Cc3ccccc3)c2)CC12CN(C(=O)C1(C(F)(F)F)CC1)C2 [I-113B]	> 10 µM	–	–
> 10 µM	Cc1ccc(CNC(=O)[C@@H]2CN(C(=O)c3cnn(Cc4ccccc4F)c3)CC23CN(C(=O)[C@H]2CC2(C)C)C3)nn1 [I-407]	–	> 20 µM	–
1 to 10 µM	CNC(=O)[C@@H](NC(=O)[C@@H]1CN(C(=O)c2cncs2)CC12CN(C(=O)[C@H]1CC1(C)C)C2)c1nnc(C2CCCCC2)o1 [I-429]	> 10 µM	> 20 µM	–
> 10 µM	CNC(=O)[C@@H](NC(=O)[C@H]1CN(CC2CCOCC2)CC12CN(C(=O)[C@H]1CC1(C)C)C2)[C@@H](C)OCc1ccccc1 [I-68B]	> 10 µM	–	–
0.1 to 1 µM	C[C@@H](OCC1CCOCC1)[C@@H](COC(F)F)NC(=O)[C@@H]1CN(C(=O)c2cncs2)CC12CN(C(=O)[C@H]1CC1(C)C)C2 [I-441]	–	> 20 µM	–
0.01 to 0.1 µM	C[C@@H](OCc1ccccc1)[C@H](NC(=O)C1CN(C(=O)c2cnn(Cc3ccccc3)c2)CC12CN(C(=O)C1CC1(C)C)C2)C(=O)NCCCCCN (stereo partly shown) [I-57]	> 10 µM	–	–
≤ 0.01 µM	C[C@@H]1C[C@H](C)CN(C(=O)[C@@H](NC(=O)[C@@H]2CN(C(=O)c3cn[nH]c3)CC23CN(C(=O)[C@H]2CC2(C)C)C3)[C@@H](C)OCC2CCCCC2)C1 [I-173A]	≤ 0.5 µM	0.5 to 5 µM	–
≤ 0.01 µM	C[C@@H](OCC1CCC(F)(F)CC1)[C@H](NC(=O)[C@@H]1CN(C(=O)c2cncs2)CC12CN(C(=O)[C@H]1CC1(C)C)C2)C(=O)N1CC2CCC(C1)O2 [I-469]	0.5 to 5 µM	≤ 0.5 µM	–
> 10 µM	CNC(=O)[C@@H](NC(=O)[C@@H]1CN(C(=O)c2cnn(Cc3ccccc3)c2)CC12CN(C(=O)C1(C(C)C)CC1)C2)[C@@H](C)OCc1ccccc1 [I-109A]	> 10 µM	–	–
1 to 10 µM	C[C@@H](OCC1CCCCC1)[C@H](NC(=O)[C@H]1CN(C(=O)c2cnn(Cc3ccccc3)c2)CC12CN(C(=O)[C@H]1CC1(C)C)C2)C(=O)N1CCC[C@H](N)C1 [I-150B]	> 10 µM	–	–
0.01 to 0.1 µM	C[C@@H](OCc1ccccc1)[C@H](NC(=O)C1CN(C(=O)c2cnn(Cc3ccccc3)c2)CC12CN(C(=O)C1CC1(C)C)C2)C(=O)NCCCCCNC(=O)OC(C)(C)C (stereo partly shown) [I-52]	0.5 to 5 µM	0.5 to 5 µM	–
1 to 10 µM	C[C@@H](OCC1CCCCC1)[C@H](NC(=O)[C@H]1CN(C(=O)c2cncs2)CC12CN(C(=O)[C@H]1CC1(C)C)C2)C(=O)N1CCC(F)(F)CC1 [I-192B]	> 10 µM	–	–
0.1 to 1 µM	C[C@@H](OCC1CCC(F)(F)CC1)[C@H](NC(=O)C1CN(C(=O)c2cnn(Cc3ccc(F)cc3)c2)CC12CN(C(=O)C1(C(F)(F)F)CC1)C2)C(=O)N1CCC(F)(F)CC1 (single isomer, unassigned) [I-190B]	0.5 to 5 µM	–	5 to 20 µM
≤ 0.01 µM	C[C@@H](OCC1CCOCC1)[C@H](NC(=O)[C@@H]1CN(C(=O)c2cncs2)CC12CN(C(=O)[C@H]1CC1(C)C)C2)C(=O)N1CCC(c2ccncc2)CC1 [I-442]	–	5 to 20 µM	–
> 10 µM	CNC(=O)[C@@H](NC(=O)[C@@H]1CN(Cc2cccnc2)CC12CN(C(=O)[C@H]1CC1(C)C)C2)[C@@H](C)OCc1ccccc1 [I-49A]	> 10 µM	–	–
≤ 0.01 µM	C[C@@H](OCC1CCCCC1)[C@H](NC(=O)[C@@H]1CN(C(=O)c2cncs2)CC12CN(C(=O)[C@H]1CC1(C)C)C2)C(=O)N1CCC(F)(F)CC1 [I-192A]	≤ 0.5 µM	≤ 0.5 µM	–

IC50 (CDK2/Cyclin E1)	Compound	IC50 (Kuramochi cells)	IC50 ([1]; 72 h)	IC50 ([1]; 72 hours)
≤ 0.01 µM	C[C@@H](OCC1CCCCC1)[C@H](NC(=O)[C@@H]1CN(C(=O)c2cnn(Cc3ccccc3)c2)CC12CN(C(=O)[C@H]1CC1(C)C)C2)C(=O)N1CCC[C@H](N)C1 [I-150A]	0.5 to 5 µM	–	–
–	CNC(=O)[C@@H](NC(=O)[C@@H]1CN(C(=O)c2cnn(Cc3ccccc3)c2)CC12CN(C(=O)[C@H]1CC1(C)C)C2)[C@@H](C)OCC1CCCCCC1 [I-166A]	≤ 0.5 µM	≤ 0.5 µM	–
–	CC(=O)N1C[C@@H](C(=O)N[C@H](C(=O)N2CCCCC2)[C@@H](C)OCC2CCCCC2)C2(C1)CN(C(=O)[C@H]1CC1(C)C)C2 [I-118]	> 10 µM	> 20 µM	–
–	CNC(=O)[C@@H](NC(=O)[C@@H]1CN(C(=O)c2cncs2)CC12CN(CC1CCOC1)C2)[C@@H](C)OCC12CCC(CC1)OC2 (stereo partly shown) [I-345]	> 10 µM	> 20 µM	–
–	CNC(=O)[C@@H](NC(=O)[C@@H]1CN(C(=O)c2cncs2)CC12CN(C(=O)[C@H]1CC1(C)C)C2)[C@@H](C)OC1CC2CCC1CC2 (stereo partly shown) [I-464]	0.5 to 5 µM	0.5 to 5 µM	–
–	C[C@H](OC1CCN(C(=O)[C@@H]2CN(C(=O)c3cnn(Cc4ccccc4)c3)CC23CN(C(=O)[C@H]2CC2(C)C)C3)CC1)c1ccccc1 [I-275]	> 10 µM	> 20 µM	–
–	CNC(=O)C(NC(=O)[C@@H]1CN(C(=O)c2cncs2)CC12CN(C(=O)[C@H]1CC1(C)C)C2)c1cccc(N2CC3(CC(C(F)(F)F)C3)C2)n1 (stereo partly shown) [I-430]	> 10 µM	> 20 µM	–
0.1 to 1 µM	CNC(=O)[C@@H](NC(=O)[C@@H]1CN(C(=O)c2cnco2)CC12CN(C(=O)[C@H]1CC1(C)C)C2)[C@@H](C)OCc1ccccc1 [I-39A]	> 10 µM	–	–
–	CNC(=O)C(NC(=O)[C@@H]1CN(C(=O)c2cncs2)CC12CN(C(=O)[C@H]1CC1(C)C)C2)C(O)Cc1ccccc1 (stereo partly shown) [I-356]	> 10 µM	> 20 µM	–
–	C[C@@H](OCC1CCC(F)(F)CC1)[C@H](NC(=O)[C@@H]1CN(C(=O)c2cn[nH]c2)CC12CN(C(=O)[C@H]1CC1(C)C)C2)C(=O)N1CCC(F)(F)CC1 [I-228A]	> 10 µM	> 20 µM	–
–	COC[C@H]1CCCN(C(=O)[C@@H](NC(=O)[C@H]2CN(C(=O)c3cncs3)CC23CN(C(=O)[C@H]2CC2(C)C)C3)[C@@H](C)OCC2CCCCC2)C1 [I-196B]	≤ 0.5 µM	0.5 to 5 µM	–
–	CO[C@H]1COCC[C@H]1NC(=O)[C@H]1CN(C(=O)c2cnn(Cc3ccccc3)c2)CC12CN(C(=O)[C@H]1CC1(C)C)C2 [I-134B]	> 10 µM	> 20 µM	–
–	CNC(=O)[C@@H](NC(=O)[C@@H]1CN(C(=O)c2sc(COC)nc2C)CC12CN(C(=O)[C@H]1CC1(C)C)C2)[C@@H](C)OCC1CCCCC1 [I-162A]	0.5 to 5 µM	5 to 20 µM	–
–	Cc1ccc(CNC(=O)[C@@H]2CN(C(=O)c3cncs3)CC23CN(C(=O)[C@H]2CC2(C)C)C3)nn1 [I-378]	> 10 µM	> 20 µM	–
–	COC[C@H]1CCCN(C(=O)[C@@H](NC(=O)[C@@H]2CN(C(=O)c3cncs3)CC23CN(C(=O)[C@H]2CC2(C)C)C3)[C@@H](C)O[C@H](C)C2CCCCC2)C1 [I-367]	0.5 to 5 µM	0.5 to 5 µM	–
–	CNC(=O)[C@@H](NC(=O)[C@@H]1CN(C(=O)c2cnc(COC(C)(C)C)s2)CC12CN(C(=O)[C@H]1CC1(C)C)C2)[C@@H](C)OCC1CCCCC1 [I-175A]	≤ 0.5 µM	≤ 0.5 µM	–
–	CNC(=O)[C@@H](NC(=O)[C@@H]1CN(C(=O)c2sc(C)nc2C)CC12CN(C(=O)[C@H]1CC1(C)C)C2)[C@@H](C)OCC1CCCCC1 [I-213A]	0.5 to 5 µM	0.5 to 5 µM	–
–	C[C@@H](OCC1CCCCC1)[C@H](NC(=O)[C@@H]1CN(C(=O)c2cncs2)CC12CN(C(=O)[C@H]1CC1(C)C)C2)C(=O)N1CCC(c2cnc[nH]2)CC1 [I-406]	0.5 to 5 µM	0.5 to 5 µM	–

— patent US12065445B2, “CDK2 inhibitors and methods of using the same” (Cedilla Therapeutics, Inc., priority 2021, dated 2024)
